Our source for the EC50 values is patent US10138255B2, “Piperazine derivatives as HIV protease inhibitors” (Merck Sharp & Dohme Corp., priority 2014, dated 2018).

This test concerns HIV-1 (H9IIIB strain). Put plainly: Cell-Based HIV Infection Assay Using a Reporter (MT4-GFP cells). The conditions noted are these: Human immunodeficiency virus 1, inflection point (IP) of viral growth inhibition; MT4-GFP cells infected with HIV-1 H9IIIB; 50% normal human serum; mean of at least two independent experiments; read-out: Cell Based IP (50% NHS). The protocol: Cell-Based HIV Infection Assay Using a Reporter (“Cell-Based”):
MT4-GFP cells contain a stably integrated HIV long terminal repeat promoter directing the transcription of green fluorescent protein (GFP). When HIV infects the cell, GFP is produced and the cell becomes green. MT4-GFP cells (250,000 cells/mL) were bulk-infected with HIV-1 (H9IIIB strain) at low multiplicity of infection (MOI) in RPM 1640 media, supplemented with 10% FBS for 24 h. Cells were then washed once in RPMI 1640 plus 10% FBS and resuspended in RPMI plus 50% normal human serum (NHS). Test compounds were serial-diluted in DMSO using an ECHO liquid dispenser. A control well included a combination of three HIV drugs (an inhibitor of HIV protease, integrase strand transfer and a non-nucleoside reverse transcriptase inhibitor; triple drug). The infected MT4-GFP cells were added to a 384-well poly-D-lysine coated black plate with clear bottom in which the diluted test compounds were placed. The cells were seeded in the plate at 8,000 cells per well and the final DMSO concentration was 0.4%. Infected cells were quantified at both 24 and 48 h post incubation using an Acumen eX3 plate reader. Viral reproductive ratio (R0) was determined using the number of infected cells at 48 h divided by the number of infected cells at 24 h. Percent viral growth inhibition was calculated by [1−(R−Rtripledrug)/(RDMSO−Rtripledrug)]*100. Compound potency inflection point (IP) was determined with use of a 4-parameter dose response curve analysis.
Data shown in the table reflects the mean of at least two independent experiments.
Regarding `N[C@H](C(=O)Nc1cccc(F)c1CC[C@H]1CN[C@@H]2CCCS(=O)(=O)N1C2)[C@@H](c1ccc(F)cc1)[C@H]1CC[C@H](O)CC1` [Example 202, (βR)-N-(2-{2-[(6R,9S)-2,2-dioxido-2-thia-1,7-diazabicyclo[4.3.1]dec-9-yl]ethyl}-3-fluorophenyl)-4-fluoro-β-[(1r,4R)-4-hydroxycyclohexyl]-L-phenylalaninamide], the EC50 was 89 nM.

`CCO[C@H]1CC[C@H]([C@H](c2ccc(F)cc2)[C@H](NC(=O)OC)C(=O)Nc2cccc(F)c2CC[C@H]2CN[C@@H]3CCCS(=O)(=O)N2C3)CC1` [Example 211, methyl {(1S)-2-[(2-{2-[(6R,9S)-2,2-dioxido-2-thia-1,7-diazabicyclo[4.3.1]dec-9-yl]ethyl}-3-fluorophenyl)amino]-1-[(R)-[(1r,4R)-4-ethoxycyclohexyl](4-fluorophenyl)methyl]-2-oxoethyl}carbamate]: the EC50 was determined as 6.4 nM.

On to `N[C@H](C(=O)Nc1cccc(F)c1CCC1CNC2CCCS(=O)(=O)N1C2)[C@@H](c1ccc(F)cc1)C12CC(C1)C2` (stereo partly drawn) [Example 86, (βR)-β-bicyclo[1.1.1]pent-1-yl-N-{2-[2-(2,2-dioxido-2-thia-1,7-diazabicyclo[4.3.1]dec-9-yl)ethyl]-3-fluorophenyl}-4-fluoro-L-phenylalaninamide], for which the EC50 turned out to be 340 nM.

With `CC1(C)C[C@@H]([C@H](c2ccc(Cl)c(F)c2)[C@H](N)C(=O)Nc2cncc(F)c2CC[C@H]2CN[C@@H]3CCCS(=O)(=O)N2C3)CCO1` [Example 243, (2S,3R)-2-amino-3-(4-chloro-3-fluorophenyl)-3-((S)-2,2-dimethyltetrahydro-2H-pyran-4-yl)-N-(4-(2-((6R,9S)-2,2-dioxido-2-thia-1,7-diazabicyclo[4.3.1]decan-9-yl)ethyl)-5-fluoropyridin-3-yl)propanamide], the EC50 is 8 nM.

Consider `CO[C@H]1CC[C@H]([C@H](c2ccc(F)cc2)[C@H](N)C(=O)N[C@H]2CCCC[C@@H]2CC[C@H]2CN[C@@H]3CCCS(=O)(=O)N2C3)CC1` [Example 189, (βR)-N-[(1S,2R)-2-{2-[(6R,9S)-2,2-dioxido-2-thia-1,7-diazabicyclo[4.3.1]dec-9-yl]ethyl}cyclohexyl]-4-fluoro-β-[(1r,4R)-4-methoxycyclohexyl]-L-phenylalaninamide], for which the EC50 was found to be 45 nM.

Turning to `COC(=O)N[C@H](C(=O)Nc1cccc(F)c1CCC1CNC2CCCS(=O)(=O)N1C2)[C@@H](c1ccc(Cl)cc1)c1ccc(C(F)(F)F)nc1` (stereo partly drawn) [Example 21, Methyl {(1S,2S)-2-(4-chlorophenyl)-1-({2-[2-(2,2-dioxido-2-thia-1,7-diazabicyclo[4.3.1]dec-9-yl)ethyl]-3-fluorophenyl}carbamoyl)-2-[6-(trifluoromethyl)pyridin-3-yl]ethyl}carbamate], the EC50 was 5 nM.

For `COC(=O)N[C@H](C(=O)N[C@H]1CCC[C@@H]1CC[C@H]1CN[C@@H]2CCCS(=O)(=O)N1C2)[C@@H](c1ccc(Cl)cc1)C1CCOC(C)(C)C1` (stereo partly drawn) [Example 29, Methyl [(1S,2R)-2-(4-chlorophenyl)-2-(2,2-dimethyltetrahydro-2H-pyran-4-yl)-1-{[(1S,2R)-2-{2-[(6R,9S)-2,2-dioxido-2-thia-1,7-diazabicyclo[4.3.1]dec-9-yl]ethyl}cyclopentyl]carbamoyl}ethyl]carbamate], the EC50 was found to be 23 nM.

As to `COC(=O)N[C@H](C(=O)N[C@H]1CCC[C@@H]1CC[C@H]1CN[C@@H]2CCCS(=O)(=O)N1C2)[C@@H](c1ccc(F)cc1)c1cc(F)cc(F)c1` [Example 56, methyl [(1S,2S)-2-(3,5-difluorophenyl)-1-{[(1S,2R)-2-{2-[(6R,9S)-2,2-dioxido-2-thia-1,7-diazabicyclo[4.3.1]dec-9-yl]ethyl}cyclopentyl]carbamoyl}-2-(4-fluorophenyl)ethyl]carbamate], the EC50 was found to be 24 nM.

As to `N[C@H](C(=O)Nc1cncc(F)c1CC[C@H]1CN[C@@H]2CCCS(=O)(=O)N1C2)[C@@H](c1ccc(F)cc1)C1CCOCC1` [Example 195, (βR)-N-(4-{2-[(6R,9S)-2,2-dioxido-2-thia-1,7-diazabicyclo[4.3.1]dec-9-yl]ethyl}-5-fluoropyridin-3-yl)-4-fluoro-β-(tetrahydro-2H-pyran-4-yl)-L-phenylalaninamide], the EC50 is 67 nM.

With `N[C@H](C(=O)N[C@H]1CCC[C@@H]1CC[C@H]1CN[C@@H]2CCCS(=O)(=O)N1C2)[C@H](c1cncc(C(F)(F)F)c1)c1ccc(Cl)c(F)c1` [Example 76, (βS)-4-chloro-N-[(1S,2R)-2-{2-[(6R,9S)-2,2-dioxido-2-thia-1,7-diazabicyclo[4.3.1]dec-9-yl]ethyl}cyclopentyl]-3-fluoro-β-[5-(trifluoromethyl)pyridin-3-yl]-L-phenylalaninamide], the EC50 was determined as 30 nM.

As to `COC(=O)N[C@H](C(=O)Nc1c(F)ccc(F)c1CC[C@H]1CN[C@@H]2CCCS(=O)(=O)N1C2)[C@@H](c1ccc(Cl)cc1)C1CCOCC1` [Example 32, Methyl [(1S,2R)-2-(4-chlorophenyl)-1-[(2-{2-[(6R,9S)-2,2-dioxido-2-thia-1,7-diazabicyclo[4.3.1]dec-9-yl]ethyl}-3,6-difluorophenyl)carbamoyl]-2-(tetrahydro-2H-pyran-4-yl)ethyl]carbamate], the EC50 worked out at 20 nM.

As for `CC(C)Oc1ccc(C(c2ccc(Cl)cc2)[C@H](N)C(=O)Nc2cncc(F)c2CC[C@H]2CN[C@@H]3CCCS(=O)(=O)N2C3)cn1` (stereo in doubt) [Example 240, (2S,3R)-2-amino-3-(4-chlorophenyl)-N-(4-(2-((6R,9S)-2,2-dioxido-2-thia-1,7-diazabicyclo[4.3.1]decan-9-yl)ethyl)-5-fluoropyridin-3-yl)-3-(6-isopropoxypyridin-3-yl)propanamide], the EC50 came to 8.4 nM.

As to `COC(=O)N[C@H](C(=O)Nc1cccc(F)c1CCC1CNC2CCCS(=O)(=O)N1C2)[C@H](c1cncc(F)c1)c1ccc(Cl)c(F)c1` (stereo partly drawn) [Example 46, methyl [(1S,2S)-2-(4-chloro-3-fluorophenyl)-1-({2-[2-(2,2-dioxido-2-thia-1,7-diazabicyclo[4.3.1]dec-9-yl)ethyl]-3-fluorophenyl}carbamoyl)-2-(5-fluoropyridin-3-yl)ethyl]carbamate], the EC50 worked out at 9.1 nM.

On to `COc1cc([C@H](c2ccc(Cl)c(F)c2)[C@H](N)C(=O)Nc2cccc(F)c2CCC2CNC3CCCS(=O)(=O)N2C3)ccn1` (stereo partly drawn) [Example 67, (βR)-4-chloro-N-{2-[2-(2,2-dioxido-2-thia-1,7-diazabicyclo[4.3.1]dec-9-yl)ethyl]-3-fluorophenyl}-3-fluoro-β-(2-methoxypyridin-4-yl)-L-phenylalaninamide], for which the EC50 is 4.5 nM.

On to `COC(=O)N[C@H](C(=O)Nc1cccc(F)c1CC[C@H]1CN[C@@H]2CCCS(=O)(=O)N1C2)[C@@H](c1ccc(F)cc1)[C@H]1CC[C@H](O)CC1` [Example 201, methyl [(1S)-2-[(2-{2-[(6R,9S)-2,2-dioxido-2-thia-1,7-diazabicyclo[4.3.1]dec-9-yl]ethyl}-3-fluorophenyl)amino]-1-{(R)-(4-fluorophenyl)[(1r,4R)-4-hydroxycyclohexyl]methyl}-2-oxoethyl]carbamate], for which the EC50 was found to be 220 nM.
